Results reported in patent publication US20210277020A1, “HETEROCYCLIC COMPOUNDS AS MONOACYLGLYCEROL LIPASE INHIBITORS” (Hoffmann-La Roche Inc., priority 2018, published 2021).

Target: T1, MAGL (Homo sapiens, UniProt Q99685)
T1 sequence (Q99685 1-303): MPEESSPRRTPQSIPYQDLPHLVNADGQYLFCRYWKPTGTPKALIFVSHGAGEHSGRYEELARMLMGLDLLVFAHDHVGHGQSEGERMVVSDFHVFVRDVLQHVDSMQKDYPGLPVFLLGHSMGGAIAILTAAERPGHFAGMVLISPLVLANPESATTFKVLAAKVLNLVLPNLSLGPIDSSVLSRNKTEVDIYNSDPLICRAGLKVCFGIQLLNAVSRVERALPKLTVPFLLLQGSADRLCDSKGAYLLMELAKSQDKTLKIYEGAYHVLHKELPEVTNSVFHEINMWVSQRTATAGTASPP
Assay: 2-AG assay: MAGL inhibition followed by hydrolysis of 2-arachidonoylglycerol to arachidonic acid, mass spectrometry
Assay type: biochemical
Settings: measured in 2-AG assay (footnote [a]); substrate 2-arachidonoylglycerol 8 μM, 30 min at RT
Description: Alternatively, compounds were profiled for MAGL inhibitory activity by determining the enzymatic activity by following the hydrolysis of the natural substrate, 2-arachidonoylglycerol, resulting in arachidonic acid, which can be followed by mass spectrometry. This assay is hereinafter abbreviated “2-AG assay”.
Detection by mass spectrometry in the present 2-AG assay has the advantage over known optical assays that the natural enzyme substrate, 2-arachidonoylglycerol, can be used instead of structurally unrelated compounds needed for optical readouts (such as 4-NPA). It thereby delivers more relevant data for activity determination, reduces false positives and generally adds to data quality. In addition, this assay reduces the analysis time from about 10 minutes per sample with standard methods to under 10 seconds per sample. This allows for using the present 2-AG assay in a method for high throughput screening of compounds for their MAGL inhibitory activity.
The 2-AG assay was carried out in 384 well assay plates (PP, Greiner Cat #784201) in a total volume of 20 μL. Compound dilutions were made in 100% DMSO (VWR Chemicals 23500.297) in a polypropylene plate in 3-fold dilution steps to give a final concentration range in the assay from 12.5 μM to […]. 0.25 μL compound dilutions (100% DMSO) were added to 9 μL MAGL in assay buffer (50 mM TRIS (GIBCO, 15567-027), 1 mM EDTA (Fluka, 03690-100 mL), 0.01% (v/v) Tween. After shaking, the plate was incubated for 15 min at RT. To start the reaction, 10 μL 2-arachidonoylglycerol in assay buffer was added. The final concentrations in the assay was […] and 8 μM 2-arachidonoylglyerol. After shaking and 30 min incubation at RT, the reaction was quenched by the addition of 40 μL of acetonitrile containing 4 μM of d8-arachidonic acid. The amount of arachidonic acid was traced by an online SPE system (Agilent Rapidfire) coupled to a triple quadrupole mass spectrometer (Agilent 6460). A C18 SPE cartridge (G9205A) was used in an acetonitrile/water liquid setup. The mass spectrometer was operated in negative electrospray mode following the mass transitions 303.1→259.1 for arachidonic acid and 311.1→267.0 for d8-arachidonic acid. The activity of the compounds was calculated based on the ratio of intensities [arachidonic acid/d8-arachidonic acid].
In a preferred embodiment, the method for determining the MAGL inhibitory activity of a test compound according to the invention, comprises: • (i) providing a solution of a test compound; • (ii) adding the solution of step (i) to a solution of MAGL; • (iii) shaking the mixture obtained from step (ii); • (iv) incubating the mixture obtained from step (iii); • (v) adding a solution of 2-arachidonoylglycerol; • (vi) incubating the mixture obtained from step (v); • (vii) adding a solution of d8-arachidonic acid; and • (viii) determining the ratio of intensities arachidonic acid/d8-arachidonic acid using a mass spectrometer.

O=C1CO[C@H]2CCN(C(=O)N3CCC(C#Cc4ccc(F)cc4Cl)CC3)C[C@H]2N1 [Example 128, (+)-(4aR,8aS)-6-[4-[2-(2-Chloro-4-fluorophenyl)ethynyl]piperidine-1-carbonyl]-4,4a,5,7,8,8a-hexahydropyrido[4,3-b][1,4]oxazin-3-one]
IC50: 23 nM

O=C1CO[C@H]2CCN(C(=O)N3CCC(C#Cc4cccc(Cl)c4)CC3)C[C@H]2N1 [Example 129, (+)-(4aR,8aS)-6-[4-[2-(3-Chlorophenyl)ethynyl]piperidine-1-carbonyl]-4,4a,5,7,8,8a-hexahydropyrido[4,3-b][1,4]oxazin-3-one]
IC50: 103 nM

O=C1CO[C@H]2CCN(C(=O)N3CCC(C#Cc4ccc(Cl)cc4)CC3)C[C@H]2N1 [Example 130, (+)-(4aR,8aS)-6-[4-[2-(4-Chlorophenyl)ethynyl]piperidine-1-carbonyl]-4,4a,5,7,8,8a-hexahydropyrido[4,3-b][1,4]oxazin-3-one]
IC50: 82 nM

O=C1CO[C@H]2CCN(C(=O)N3CCC(C#Cc4ccc(Cl)cc4Cl)CC3)C[C@H]2N1 [Example 131, (+)-(4aR,8aS)-6-[4-[2-(2,4-Dichlorophenyl)ethynyl]piperidine-1carbonyl]-4,4a,5,7,8,8a-hexahydropyrido[4,3-b][1,4]oxazin-3-one]
IC50: 22 nM

O=C1CO[C@H]2CCN(C(=O)N3CCC(O)(C#Cc4ccccc4Cl)CC3)C[C@H]2N1 [Example 132, (+)-(4aR,8aS)-6-[4-[2-(2-Chlorophenyl)ethynyl]-4-hydroxypiperidine-1-carbonyl]-4,4a,5,7,8,8a-hexahydropyrido[4,3-b][1,4]oxazin-3-one]
IC50: 889 nM

O=C1CO[C@H]2CCN(C(=O)N3CC(C#Cc4ccccc4Cl)C3)C[C@H]2N1 [Example 133]
IC50: 9 nM

O=C1CO[C@H]2CCN(C(=O)N3CC(C#Cc4ccc(Cl)cc4Cl)C3)C[C@H]2N1 [Example 134, (+)-(4aR,8aS)-6-(3-((2,4-Dichlorophenyl)ethynyl)azetidine-1-carbonyl)hexahydro-2H-pyrido[4,3-b][1,4]oxazin-3(4H)-one]
IC50: 5 nM

O=C1CO[C@H]2CCN(C(=O)N3CC(C#Cc4ccc(F)cc4Cl)C3)C[C@H]2N1 [Example 135, (+)-(4aR,8aS)-6-[3-[2-(2-Chloro-4-fluorophenyl)ethynyl]azetidine-1-carbonyl]-4,4a,5,7,8,8a-hexahydropyrido[4,3-b][1,4]oxazin-3-one]
IC50: 13 nM

O=C1CO[C@H]2CCN(C(=O)N3CC(Sc4ccc(C(F)(F)F)cc4Cl)C3)C[C@H]2N1 [Example 143, (4aR,8aS)-6-[3-[2-Chloro-4-(trifluoromethyl)phenyl]sulfanylazetidine-1-carbonyl]-4,4a,5,7,8,8a-hexahydropyrido[4,3-b][1,4]oxazin-3-one]
IC50: 105 nM

O=C1CO[C@H]2CCN(C(=O)N3CC(S(=O)(=O)c4ccc(C(F)(F)F)cc4Cl)C3)C[C@H]2N1 [Example 144, (4aR,8aS)-6-[3-[2-Chloro-4-(trifluoromethyl)phenyl]sulfonylazetidine-1-carbonyl]-4,4a,5,7,8,8a-hexahydropyrido[4,3-b][1,4]oxazin-3-one]
IC50: 2640 nM

O=C1CO[C@H]2CCN(C(=O)N3CC(CSc4ccc(C(F)(F)F)cc4Cl)C3)C[C@H]2N1 [Example 148, (4aR,8aS)-6-[3-[[2-Chloro-4-(trifluoromethyl)phenyl]sulfanylmethyl]azetidine-1-carbonyl]-4,4a,5,7,8,8a-hexahydropyrido[4,3-b][1,4]oxazin-3-one]
IC50: 2 nM

O=C1CO[C@H]2CCN(C(=O)N3CC(CS(=O)(=O)c4ccc(C(F)(F)F)cc4Cl)C3)C[C@H]2N1 [Example 152, (4aR,8aS)-6-[3-[[2-Chloro-4-(trifluoromethyl)phenyl]sulfonylmethyl]azetidine-1-carbonyl]-4,4a,5,7,8,8a-hexahydropyrido[4,3-b][1,4]oxazin-3-one]
IC50: 655 nM

O=C1CO[C@H]2CCN(C(=O)N3CC(SCc4ccc(C(F)(F)F)cc4F)C3)C[C@H]2N1 [Example 156, (4aR,8aS)-6-[3-[[2-Fluoro-4-(trifluoromethyl)phenyl]methylsulfanyl]azetidine-1-carbonyl]-4,4a,5,7,8,8a-hexahydropyrido[4,3-b][1,4]oxazin-3-one]
IC50: 7 nM

O=C1CO[C@H]2CCN(C(=O)N3CC(C#Cc4c(Cl)cccc4Cl)C3)C[C@H]2N1 [Example 157, (+)-(4aR,8aS)-6-(3-((2,6-Dichlorophenyl)ethynyl)azetidine-1-carbonyl)hexahydro-2H-pyrido[4,3-b][1,4]oxazin-3(4H)-one]
IC50: 5 nM

O=C1CO[C@H]2CCN(C(=O)N3CC(C#Cc4ccc(C(F)(F)F)cc4F)C3)C[C@H]2N1 [Example 158, (4aR,8aS)-6-[3-[2-[2-Fluoro-4-(trifluoromethyl)phenyl]ethynyl]azetidine-1-carbonyl]-4,4a,5,7,8,8a-hexahydropyrido[4,3-b][1,4]oxazin-3-one]
IC50: 5 nM

O=C1CO[C@H]2CCN(C(=O)N3CC(C#Cc4c(F)cccc4F)C3)C[C@H]2N1 [Example 159, (4aR,8aS)-6-(3-((2,6-Difluorophenyl)ethynyl)azetidine-1-carbonyl)hexahydro-2H-pyrido[4,3-b][1,4]oxazin-3(4H)-one]
IC50: 34 nM

O=C1CO[C@H]2CCN(C(=O)N3CC(C#Cc4ccc(C(F)(F)F)c(Cl)c4)C3)C[C@H]2N1 [Example 160, (4aR,8aS)-6-(3-((3-Chloro-4-(trifluoromethyl)phenyl)ethynyl)azetidine-1-carbonyl)hexahydro-2H-pyrido[4,3-b][1,4]oxazin-3(4H)-one]
IC50: 1 nM

O=C1CO[C@H]2CCN(C(=O)N3CC(C#Cc4c(F)cccc4Cl)C3)C[C@H]2N1 [Example 161, (4aR,8aS)-6-(3-((2-Chloro-6-fluorophenyl)ethynyl)azetidine-1-carbonyl)hexahydro-2H-pyrido[4,3-b][1,4]oxazin-3(4H)-one]
IC50: 5 nM

O=C1CO[C@H]2CCN(C(=O)N3CC(C#Cc4ccc(C5CC5)cc4Cl)C3)C[C@H]2N1 [Example 162, (4aR,8aS)-6-(3-((2-Chloro-4-cyclopropylphenyl)ethynyl)azetidine-1-carbonyl)hexahydro-2H-pyrido[4,3-b][1,4]oxazin-3(4H)-one]
IC50: 1 nM

COc1ccccc1C#CC1CN(C(=O)N2CC[C@@H]3OCC(=O)N[C@@H]3C2)C1 [Example 163, (4aR,8aS)-6-(3-((2-Methoxyphenyl)ethynyl)azetidine-1-carbonyl)hexahydro-2H-pyrido[4,3-b][1,4]oxazin-3(4H)-one]
IC50: 49 nM

O=C1CO[C@H]2CCN(C(=O)N3CC(C#Cc4ccc(Cl)cc4C(F)(F)F)C3)C[C@H]2N1 [Example 164, (4aR,8aS)-6-[3-[2-[4-Chloro-2-(trifluoromethyl)phenyl]ethynyl]azetidine-1-carbonyl]-4,4a,5,7,8,8a-hexahydropyrido[4,3-b][1,4]oxazin-3-one]
IC50: 3 nM

O=C1CO[C@H]2CCN(C(=O)N3CC(C#Cc4cccc(Cl)c4)C3)C[C@H]2N1 [Example 165, (4aR,8aS)-6-[3-[2-(3-Chlorophenyl)ethynyl]azetidine-1-carbonyl]-4,4a,5,7,8,8a-hexahydropyrido[4,3-b][1,4]oxazin-3-one]
IC50: 8 nM

O=C1CO[C@H]2CCN(C(=O)N3CC(C#Cc4ccc(OC(F)(F)F)cc4)C3)C[C@H]2N1 [Example 166, (4aR,8aS)-6-[3-[2-[4-(Trifluoromethoxy)phenyl]ethynyl]azetidine-1-carbonyl]-4,4a,5,7,8,8a-hexahydropyrido[4,3-b][1,4]oxazin-3-one]
IC50: 9 nM
